In ChEMBL document CHEMBL5120862, “Novel non-covalent LSD1 inhibitors endowed with anticancer effects in leukemia and solid tumor cellular models” (Eur J Med Chem, 2022):
The source made the active and inactive calls. The calls are words filed in the database; no cut-off is given here.

Tests used:
[1] = target: Histone-lysine N-methyltransferase, H3 lysine-79 specific (Homo sapiens) (UniProt Q8TEK3); assay: Inhibition of […] (unknown origin) using [3H]SAM and HeLa oligo nucleosomes as substrates at 100 uM incubated for 1 hr relative to control
[2] = target: Histone-lysine N-methyltransferase EZH2 (Homo sapiens) (UniProt Q15910); assay: Inhibition of EZH2 (unknown origin) using [3H]SAM and chicken core histone as substrates at 100 uM incubated for 1 hr relative to control
THP-1 [3] = assay: Antiproliferative activity against human THP-1 cells assessed as inhibition of cell growth incubated for 24 hrs by CellTiter-Glo luminescent cell viability assay; format: functional, cell-based; conditions: THP-1, 24 h
THP-1 [4] = assay: Antiproliferative activity against human THP-1 cells assessed as inhibition of cell growth incubated for 144 hrs by CellTiter-Glo luminescent cell viability assay; format: functional, cell-based; conditions: THP-1, 144 h
[5] = Cytotoxicity against human AHH-1 cells assessed as residual cell viability at 1 uM measured after 72 hrs by MTT assay relative to control; format: toxicity, cell-based; conditions: read-out: Activity
MV4-11 [6] = assay: Antiproliferative activity against human MV4-11 cells assessed as inhibition of cell growth at 0.2 to […] incubated for 72 hrs by trypan blue staining based analysis; format: functional; conditions: dose 0.2-2.5 µM
MV4-11 [7] = assay: Antiproliferative activity against human MV4-11 cells assessed as inhibition of cell growth at 1 uM incubated for 144 hrs by trypan blue staining based analysis; format: functional
MV4-11 [8] = assay: Induction of cell cycle arrest in human MV4-11 cells assessed as accumulation of cells at G1 phase at 0.2 to […] incubated for 24 hrs; format: functional, cell-based; conditions: dose 0.2-2.5 µM
MV4-11 [9] = assay: Induction of apoptosis in human MV4-11 cells assessed as accumulation of cells at sub-G1 phase incubated for 24 hrs; format: functional, cell-based; conditions: dose 0.2-25 µM, DDE = dose-dependent effect
MDA-MB-231 = assay: Antiproliferative activity against human MDA-MB-231 cells assessed as inhibition of cell growth measured after 72 hrs by MTT assay; format: functional, cell-based; conditions: MDA-MB-231, 72 h
[10] = Cytotoxicity against HMEC cells assessed as residual cell viability at 1 uM incubated for 72 hrs by MTT assay relative to control; format: toxicity, cell-based; conditions: human, read-out: Activity
RD [11] = assay: Antiproliferative activity against human RD cells assessed as inhibition of cell growth incubated for 72 hrs; format: functional, cell-based
RD [12] = assay: Antiproliferative activity against human RD cells assessed as inhibition of cell growth incubated for 144 hrs; format: functional, cell-based
SJRH30 [13] = assay: Antiproliferative activity against human Rh30 cells assessed as inhibition of cell growth incubated for 144 hrs; format: functional, cell-based; conditions: SJRH30, 144 h
[14] = Cytotoxicity against human derived mesenchymal stem cells assessed as residual cell viability at 1.25 uM measured after 72 hrs relative to control; format: toxicity, cell-based; conditions: read-out: Activity
[15] = target: Lysine-specific histone demethylase 1A (Homo sapiens) (UniProt O60341); assay: Inhibition of LSD1 in human Rh30 cells assessed as increase in H3K4me2 level at 1 uM incubated for 48 hrs by Western blot analysis; format: cell-based
SJRH30 [16] = assay: Antiproliferative activity against human Rh30 cells assessed as reduction in live cells at 2 uM incubated for 24 hrs by calceinAM/propidium iodide staining based fluorescence microscopy; format: functional, cell-based
RD [17] = assay: Antiproliferative activity against human RD cells assessed as reduction in live cells at 2 uM incubated for 72 hrs by calceinAM/propidium iodide staining based fluorescence microscopy; format: functional, cell-based
RD [18] = assay: Induction of apoptosis in human RD cells assessed as increase in caspase 3/7 level at 2 uM incubated for 24 hrs; format: functional, cell-based
SJRH30 [19] = assay: Induction of apoptosis in human Rh30 cells assessed as increase in caspase 3/7 level at 2 uM incubated for 24 hrs; format: functional, cell-based

Histone-lysine N-methyltransferase, H3 lysine-79 specific (Homo sapiens), sequence (Q8TEK3 whole entry, looked up): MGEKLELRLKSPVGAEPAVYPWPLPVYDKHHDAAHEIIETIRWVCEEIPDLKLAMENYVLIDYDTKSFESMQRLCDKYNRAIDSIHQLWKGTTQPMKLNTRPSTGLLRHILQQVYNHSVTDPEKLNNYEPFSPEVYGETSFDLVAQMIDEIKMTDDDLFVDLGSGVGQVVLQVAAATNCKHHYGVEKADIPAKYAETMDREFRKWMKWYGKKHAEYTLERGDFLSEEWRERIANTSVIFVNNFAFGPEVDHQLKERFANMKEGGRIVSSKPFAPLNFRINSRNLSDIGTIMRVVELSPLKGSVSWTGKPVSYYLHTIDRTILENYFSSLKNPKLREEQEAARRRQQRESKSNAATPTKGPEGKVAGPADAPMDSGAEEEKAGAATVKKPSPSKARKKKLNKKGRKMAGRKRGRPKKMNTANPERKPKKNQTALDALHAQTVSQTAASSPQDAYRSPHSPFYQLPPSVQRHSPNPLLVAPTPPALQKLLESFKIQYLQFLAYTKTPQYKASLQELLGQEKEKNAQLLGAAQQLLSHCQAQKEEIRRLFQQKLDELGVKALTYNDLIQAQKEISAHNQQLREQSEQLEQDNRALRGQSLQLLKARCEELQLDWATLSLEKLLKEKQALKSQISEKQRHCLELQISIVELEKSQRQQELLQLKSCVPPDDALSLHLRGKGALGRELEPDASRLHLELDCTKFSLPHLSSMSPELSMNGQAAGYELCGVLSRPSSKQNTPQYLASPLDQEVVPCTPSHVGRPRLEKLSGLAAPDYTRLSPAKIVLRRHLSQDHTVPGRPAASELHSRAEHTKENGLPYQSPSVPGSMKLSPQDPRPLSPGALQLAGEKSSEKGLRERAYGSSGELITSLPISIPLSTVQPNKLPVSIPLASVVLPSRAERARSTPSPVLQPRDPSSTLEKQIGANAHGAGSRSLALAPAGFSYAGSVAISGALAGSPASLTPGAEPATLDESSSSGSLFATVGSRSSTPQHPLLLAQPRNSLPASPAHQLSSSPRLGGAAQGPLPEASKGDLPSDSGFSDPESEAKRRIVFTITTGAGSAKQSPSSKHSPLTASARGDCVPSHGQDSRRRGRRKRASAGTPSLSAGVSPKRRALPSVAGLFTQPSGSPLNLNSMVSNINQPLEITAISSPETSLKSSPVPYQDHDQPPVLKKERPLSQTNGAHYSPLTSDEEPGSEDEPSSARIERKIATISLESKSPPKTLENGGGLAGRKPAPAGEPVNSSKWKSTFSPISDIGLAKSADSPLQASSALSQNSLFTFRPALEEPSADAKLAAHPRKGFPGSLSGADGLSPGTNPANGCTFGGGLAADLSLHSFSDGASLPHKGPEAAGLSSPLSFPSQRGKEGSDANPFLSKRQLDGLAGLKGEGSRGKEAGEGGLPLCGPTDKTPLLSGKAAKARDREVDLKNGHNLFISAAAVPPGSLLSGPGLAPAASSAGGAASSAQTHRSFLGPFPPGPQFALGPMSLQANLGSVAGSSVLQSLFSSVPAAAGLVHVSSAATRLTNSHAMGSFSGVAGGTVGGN
Histone-lysine N-methyltransferase EZH2 (Homo sapiens), sequence (Q15910 whole entry, looked up): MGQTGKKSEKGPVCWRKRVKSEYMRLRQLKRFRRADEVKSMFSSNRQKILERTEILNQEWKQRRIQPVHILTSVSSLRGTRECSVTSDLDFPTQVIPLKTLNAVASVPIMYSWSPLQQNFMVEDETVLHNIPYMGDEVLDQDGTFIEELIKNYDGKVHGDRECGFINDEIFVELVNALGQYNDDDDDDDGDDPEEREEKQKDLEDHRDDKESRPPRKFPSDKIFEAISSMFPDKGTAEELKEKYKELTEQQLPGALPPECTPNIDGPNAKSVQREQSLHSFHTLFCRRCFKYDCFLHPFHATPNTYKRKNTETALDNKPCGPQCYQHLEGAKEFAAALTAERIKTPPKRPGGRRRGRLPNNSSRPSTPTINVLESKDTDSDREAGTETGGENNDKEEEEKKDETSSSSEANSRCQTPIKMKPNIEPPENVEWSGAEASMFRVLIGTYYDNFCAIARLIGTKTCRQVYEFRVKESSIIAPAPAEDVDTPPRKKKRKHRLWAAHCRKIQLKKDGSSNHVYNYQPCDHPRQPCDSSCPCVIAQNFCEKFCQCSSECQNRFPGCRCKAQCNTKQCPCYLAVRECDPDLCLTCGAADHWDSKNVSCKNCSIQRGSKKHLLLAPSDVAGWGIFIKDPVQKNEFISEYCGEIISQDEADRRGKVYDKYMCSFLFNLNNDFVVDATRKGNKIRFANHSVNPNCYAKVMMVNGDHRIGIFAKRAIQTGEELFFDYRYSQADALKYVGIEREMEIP

## COc1cc2c(NC3CCN(Cc4ccccc4)CC3)nc(NCCCN(C)C)nc2cc1OCc1ccccc1
[1]
  inhibition: 22.6%
[2]
  inhibition: 1.8%
THP-1 [3]
  IC50: 270 nM
THP-1 [4]
  IC50: 130 nM
[5]
  viability at 72 h, 1 µM: 90%
MV4-11 [6]
  inhibition: Active
MV4-11 [7]
  inhibition: Active
MV4-11 [8]
  Activity: Active
MV4-11 [9]
  Activity: Dde
MDA-MB-231
  IC50: 400 nM
[10]
  viability at 72 h, 1 µM: 76%
RD [11]
  IC50: 850 nM
RD [12]
  IC50: 730 nM
SJRH30 [13]
  IC50: 680 nM
[14]
  viability at 72 h, 1.25 µM: 92%
[15]
  inhibition: Active
SJRH30 [16]
  Activity: Active
RD [17]
  Activity: Active
RD [18]
  Activity: Active
SJRH30 [19]
  Activity: Active
